Reference: article PMC11747885, “Potent inhibitors of the human RNA ligase Rlig1 highlights its role in RNA integrity maintenance under oxidative cellular stress” (Chemical Science, 2025)
Several values for one entry are separate records, joined by “and”; a condition that tells them apart may be missing. Equal entries are not always repeated. Marks after values point to notes of the source that are not given here.

Legend:
[1] = system: HEK293 cells; assay: Cell viability assay of HEK293 cells treated with inhibitors and menadione; type: cell-based, human
[2] = as above; type: cell-based, human; conditions: human, HEK293 cells, w/o Menadione; for viability at 7.5 µM: 7.5 µM compound; for viability at 15 µM: 15 µM compound; for viability at 30 µM: 30 µM compound; for viability at 60 µM: 60 µM compound
[3] = in vitro; conditions: human
[4] = biological target: T1, human DNA ligase 1 (hLig1) (Homo sapiens, UniProt P18858); assay: DNA ligation assay with hLig1 and 47 (compound titration); type: biochemical; conditions: for Product formation [%] of DNA ligation, hlig1: three replicates
T1 construct: made in house; host or cells: E. coli Rosetta BL21 (DE3), pET28a-hLig1
T1 sequence (P18858 whole entry): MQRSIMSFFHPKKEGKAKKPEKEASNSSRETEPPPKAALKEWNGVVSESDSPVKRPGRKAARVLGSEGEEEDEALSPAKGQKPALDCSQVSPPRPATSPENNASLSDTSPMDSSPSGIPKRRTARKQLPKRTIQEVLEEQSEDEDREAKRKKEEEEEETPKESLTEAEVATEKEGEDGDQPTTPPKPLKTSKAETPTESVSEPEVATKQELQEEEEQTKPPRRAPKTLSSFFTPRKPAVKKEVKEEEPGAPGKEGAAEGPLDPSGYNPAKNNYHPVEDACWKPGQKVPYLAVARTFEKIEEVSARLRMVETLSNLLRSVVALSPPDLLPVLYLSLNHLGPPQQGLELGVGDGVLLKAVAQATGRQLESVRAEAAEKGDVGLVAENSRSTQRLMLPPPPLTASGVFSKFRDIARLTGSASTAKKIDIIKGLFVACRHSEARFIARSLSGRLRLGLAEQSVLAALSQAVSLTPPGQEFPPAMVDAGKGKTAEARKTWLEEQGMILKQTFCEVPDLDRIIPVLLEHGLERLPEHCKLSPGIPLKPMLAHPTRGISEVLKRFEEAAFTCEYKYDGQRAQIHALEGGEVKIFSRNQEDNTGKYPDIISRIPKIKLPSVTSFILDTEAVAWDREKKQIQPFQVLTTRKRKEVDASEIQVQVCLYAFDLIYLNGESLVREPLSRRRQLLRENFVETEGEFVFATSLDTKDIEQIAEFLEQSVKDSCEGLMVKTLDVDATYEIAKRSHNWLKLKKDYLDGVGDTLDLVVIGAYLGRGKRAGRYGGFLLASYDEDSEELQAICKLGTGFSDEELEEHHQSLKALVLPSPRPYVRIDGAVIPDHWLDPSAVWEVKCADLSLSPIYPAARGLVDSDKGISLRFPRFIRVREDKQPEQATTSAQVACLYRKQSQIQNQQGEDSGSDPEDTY

[5] = 20240508 plate 012, DMSO Ko no Mendione = 100
[6] = 20240508 plate 013, DMSO Ko no Mendione = 100
[7] = 20240515 plate 014, DMSO Ko no Mendione = 100
[8] = 20240515 plate 015, DMSO Ko no Mendione = 100
[9] = Figure 5B, Sigmoidal, 4PL, fit Interrupted

SMILES: Nc1nccc(Nc2ccc(NC(=O)c3ccc(Nc4ncnc5ccccc45)cc3)cc2)n1 [Compound 47]
- Cell viability raw signal, technical replicates ([1]; 30 µM compound, w Menadione (40µM), 20240515 plate 014): 15897 and 16266 and 21346 and 20584
- Cell viability raw signal, technical replicates ([1]; 30 µM compound, w Menadione (40µM), 20240515 plate 015): 19537 and 20556 and 18511 and 24331
- Cell viability raw signal, technical replicates ([1]; 30 µM compound, w/o Menadione, 20240508 plate 012): 338540 and 348450 and 357680 and 361520
- Mean Diff, (Predicted (LS) mean diff,) w/o menadione - w menadione ([1]; 60 µM compound, 2 way ANOVA, Šídák's multiple comparisons test, normalised viability): 29.66
- Cell viability raw signal, technical replicates ([1]; 60 µM compound, w Menadione (40µM), 20240508 plate 012): 68212* and 77972* and 10202 and 14953
- Cell viability raw signal, technical replicates ([1]; 60 µM compound, w Menadione (40µM), 20240508 plate 013): 97500* and 94661* and 7245 and 13149
- Cell viability raw signal, technical replicates ([1]; 60 µM compound, w Menadione (40µM), 20240515 plate 014): 23954 and 23288 and 10147 and 14983
- Cell viability raw signal, technical replicates ([1]; 60 µM compound, w Menadione (40µM), 20240515 plate 015): 24869 and 20588 and 9258 and 15604
- Cell viability raw signal, technical replicates ([1]; 60 µM compound, w/o Menadione, 20240508 plate 012): 309000 and 323530 and 287920 and 324080
- Cell viability raw signal, technical replicates ([1]; 60 µM compound, w/o Menadione, 20240508 plate 013): 294060 and 325150 and 301550 and 314910
- Cell viability raw signal, technical replicates ([1]; 60 µM compound, w/o Menadione, 20240515 plate 014): 295270 and 285610 and 291450 and 291110
- Cell viability raw signal, technical replicates ([1]; 60 µM compound, w/o Menadione, 20240515 plate 015): 292640 and 290230 and 291370 and 285220
- cell viability under oxidative stress (in words) ([1]; inhibitor 24 h, then 40 μM menadione 5 h): significantly reduced viability only when the cells were stressed
- viability at 7.5 µM [2, 5]: 101%
- viability at 7.5 µM [2, 6]: 97.7%
- viability at 7.5 µM [2, 7]: 86.8%
- viability at 7.5 µM [2, 8]: 90.7%
- viability at 15 µM [2, 5]: 99.1%
- viability at 15 µM [2, 6]: 99.5%
- viability at 15 µM [2, 7]: 88.1%
- viability at 15 µM [2, 8]: 86.8%
- viability at 30 µM [2, 5]: 83.9%
- viability at 30 µM [2, 6]: 85.9%
- viability at 30 µM [2, 7]: 80.3%
- viability at 30 µM [2, 8]: 77.7%
- viability at 60 µM [2, 5]: 74.2%
- viability at 60 µM [2, 6]: 78.2%
- viability at 60 µM [2, 7]: 71.3%
- viability at 60 µM [2, 8]: 70.9%
- viability at 24 h, 0.234375 µM [3]: 109%
- viability at 24 h, 0.46875 µM [3]: 101%
- viability at 24 h, 0.9375 µM [3]: 102%
- viability at 24 h, 1.875 µM [3]: 102%
- viability at 24 h, 3.75 µM [3]: 97.2%
- viability at 24 h, 7.5 µM [3]: 97.9%
- viability at 24 h, 15 µM [3]: 93%
- viability at 24 h, 30 µM [3]: 86%
- effect on DNA ligase activity (in words) ([4]; 1:2 dilution series starting from 30 μM compound, 500 nM hLig1, 20 min 37 °C): No effect
- Bottom (best-fit value), hlig1 [4, 9]: -4.954
- HillSlope (best-fit value), hlig1 [4, 9]: -3.033
- Span (best-fit value), hlig1 [4, 9]: 97.9
- Top (best-fit value), hlig1 [4, 9]: 92.94
- LogIC50 (best-fit value), hlig1 ([4]; Figure 5B, Sigmoidal, 4PL, fit Interrupted, log of µM): 1.72
- Product formation [%] of DNA ligation, hlig1 ([4]; log (47 [µM]) 0.273001): -3.458% and -4.463% and -2.953%
- Product formation [%] of DNA ligation, hlig1 ([4]; log (47 [µM]) 0.574031): -2.567% and -4.108% and -2.802%
- Product formation [%] of DNA ligation, hlig1 ([4]; log (47 [µM]) 0.875061): -2.276% and -3.138% and -3.06%
- Product formation [%] of DNA ligation, hlig1 ([4]; log (47 [µM]) 1.17609): 0.5458% and -2.902% and -1.203%
- Product formation [%] of DNA ligation, hlig1 ([4]; log (47 [µM]) 1.47712): 11.4249% and 9.911% and 18.8699%
- Product formation [%] of DNA ligation, hlig1 ([4]; log (47 [µM]) -0.0280287): -3.67% and -4.363% and -3.165%
- Product formation [%] of DNA ligation, hlig1 ([4]; log (47 [µM]) -0.329059): -3.453% and -3.785% and -3.456%
- Product formation [%] of DNA ligation, hlig1 ([4]; log (47 [µM]) -0.630089): -3.095% and -4.479% and -2.914%
